Drawing on PubChem BioAssay AID2649 (Southern Research Specialized Biocontainment Screening …, 2010), this text covers CC50 for 21 compounds.

Test [1] deals with MAGI-CCR5 HeLa cells viability, MTS, 5% serum. The test is described as follows: cytotoxicity in MAGI-CCR5 cells, SAR follow-up, cytotoxicity control for HIV-1 antiviral lead project, cell-based, MTS, 5% and 10% serum (AID 2649).
The subject of test [2] is MAGI-CCR5 HeLa cells viability, MTS, 10% serum. The test is described as above.

A word on the CC50: it is the concentration that lowers cell viability or growth by half.

Activity calls are given as the source filed them.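 How the source made its calls: active means lowest viability as percent of untreated cell control, measured with 5% serum, under 70% cytotoxic; inactive means the rest.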

In the case of `N#C/C(=C\c1ccc(OCc2ccc(Cl)cc2)cc1)C(=O)Nc1cccc(C(=O)O)c1`, the CC50 in test [1] was > 100 µM (inactive); in test [2], more than 100 µM.
Taken in the same sequence, the figures for `O=C(O)c1ccccc1N=Nc1c(O)[nH]c2ccc([N+](=O)[O-])cc12` were > 100 µM (inactive) and more than 100 µM.
In turn, `O=C1NC(=S)N(c2ccc(F)cc2)C(=O)/C1=C\c1ccoc1` displayed a CC50 in test [2] of more than 100 µM.
For `Cc1c2c(=O)n(-c3nc4ccccc4s3)nc-2cc(O)n1Cc1ccccc1`, the figures for the CC50 in test [1] and in test [2] were > 100 µM (inactive) and more than 100 µM, respectively.
With `O=C(N/N=C/c1c(O)n(C2CCCCC2)c(=S)[nH]c1=O)c1ccccc1O`, the CC50 is > 100 µM (inactive) in test [1] and more than 100 µM in test [2].
As to `Cc1c(Cl)cccc1NS(=O)(=O)c1ccc2c(c1)C1C=CCC1C(c1ccc(C(=O)O)cc1)N2` (stereo not drawn), the CC50 in test [1] was 71.7 µM; in test [2] it was more than 100 µM.
In test [2], `CCOC(=O)C1=C(C)N=c2sc(=Cc3ccc(OCC(=O)O)cc3)c(=O)n2C1c1ccc(OC(C)C)cc1` (stereo not drawn) displayed a CC50 of more than 100 µM.
As for `O=[N+]([O-])c1cc([N+](=O)[O-])c2oc(-c3ccccc3)c(Br)c2c1O`, the figures for the CC50 in test [1] and in test [2] were 38.7 µM and more than 100 µM, respectively.
Consider `CCC(C)(C)C1CCc2c(sc(NC(=O)c3ccccc3C(=O)O)c2C#N)C1` (stereo not drawn), for which, in test [2], the CC50 was more than 100 µM.
As for `O=C(O)CCCN1C(=O)/C(=C/c2ccc(-c3nc4ccccc4s3)o2)SC1=S`, the CC50 in test [1] is > 100 µM (inactive); in test [2], more than 100 µM.
The corresponding values for `N#C/C(=C\c1ccc(O)c([N+](=O)[O-])c1)c1nc2ccccc2s1` are > 100 µM (inactive) and more than 100 µM.
For the compound `CC(C)NC(=O)c1sc(=S)n2c1[nH]c(=O)c1ccc(C(=O)NCCc3ccc(Cl)cc3)cc12`, the CC50 in test [1] was > 100 µM (inactive); in test [2], more than 100 µM.
As for `CSc1nnc(-c2ccccc2N=Cc2c(C)[nH]n(-c3ccc4ccccc4c3)c2=O)c(=O)[nH]1`, the CC50 was > 100 µM (inactive) in test [1] and more than 100 µM in test [2].
The corresponding values for `Oc1c(Cl)cc(Cl)c(Cl)c1Cc1c(O)c(Cl)cc(Cl)c1Cl` are 56.5 µM and more than 100 µM.
For the compound `CCOc1cc(/C=C2\SC(=O)N(CC(=O)Nc3ccccc3F)C2=O)cc([N+](=O)[O-])c1O`, the CC50 in test [1] is > 100 µM (inactive); in test [2], more than 100 µM.
Taken in the same sequence, the figures for `CCOC(=O)c1sc(N2C(=O)C(O)=C(C(=O)c3ccc(C)o3)C2c2cccc([N+](=O)[O-])c2)nc1C` (stereo not drawn) were > 100 µM (inactive) and more than 100 µM.
On to `CCC(Sc1nc2ccsc2c(=O)n1Cc1ccc(C(=O)O)cc1)C(=O)Nc1ccc(C)c(Cl)c1` (stereo not drawn), for which the results for the CC50 in test [1] and in test [2] were > 100 µM (inactive) and more than 100 µM, respectively.
In turn, `COc1cc(/C=C2\SC(=O)N(c3ccccc3Cl)C2=O)cc([N+](=O)[O-])c1O` came in with a CC50 in test [2] of more than 100 µM.
Turning to `COC(=O)c1sc(-c2ccc(C(C)(C)C)cc2)cc1NC(=O)c1ccccc1C(=O)O`, the CC50 is 88.7 µM in test [1] and more than 100 µM in test [2].
In the case of `CC(C)(C)c1cc(-c2csc(Nc3ccccc3)[n+]2Cc2ccc(C(=O)O)cc2)cc(C(C)(C)C)c1O`, the CC50 is 54.9 µM in test [1] and 62.4 µM in test [2].
Take `COc1cc(/C=N/NS(=O)(=O)c2ccc3ccccc3c2)ccc1OCc1ccc(C(=O)O)cc1`: the CC50 in test [1] is > 100 µM (inactive); in test [2] it was more than 100 µM.
